{
  "source": "ChEMBL document CHEMBL3797052",
  "about": "(Eur J Med Chem, 2016)",
  "format_in_all_cases": "functional",
  "key": {"[1]": {"experiment": "Cytotoxicity against human SKBR3 cells assessed as growth inhibition at 100 uM after 2 days by MTT assay", "settings": "SK-BR-3, 48 h, read-out: GI"}, "[2]": {"experiment": "Cytotoxicity against human HCT116 cells assessed as growth inhibition at 100 uM after 2 days by MTT assay", "settings": "HCT-116, 48 h, read-out: GI"}, "[3]": {"experiment": "Cytotoxicity against human SKBR3 cells assessed as growth inhibition at 10 uM after 2 days by MTT assay", "settings": "SK-BR-3, 48 h, read-out: GI"}, "[4]": {"experiment": "Cytotoxicity against human HCT116 cells assessed as growth inhibition at 10 uM after 2 days by MTT assay", "settings": "HCT-116, 48 h, read-out: GI"}},
  "data": [
    {"smiles": "CNC(=O)c1cc(Oc2ccc3nc(NC(=O)c4cc5ccccc5o4)sc3c2)ccn1", "values": [
      {"measurement": "inhibition of growth at 100 µM", "setting": "[1]", "value": 52.4, "unit": "%"},
      {"measurement": "inhibition of growth at 100 µM", "setting": "[2]", "value": 77.5, "unit": "%"},
      {"measurement": "inhibition of growth at 10 µM", "setting": "[3]", "value": 54.4, "unit": "%"},
      {"measurement": "inhibition of growth at 10 µM", "setting": "[4]", "value": 9.15, "unit": "%"}
    ]},
    {"smiles": "CNC(=O)c1cc(Oc2ccc3nc(NC(=O)c4ccc(Cl)cc4Cl)sc3c2)ccn1", "values": [
      {"measurement": "inhibition of growth at 100 µM", "setting": "[1]", "value": 81, "unit": "%"},
      {"measurement": "inhibition of growth at 100 µM", "setting": "[2]", "value": 64.4, "unit": "%"},
      {"measurement": "inhibition of growth at 10 µM", "setting": "[3]", "value": 14, "unit": "%"},
      {"measurement": "inhibition of growth at 10 µM", "setting": "[4]", "value": 15.1, "unit": "%"}
    ]},
    {"smiles": "CNC(=O)c1cc(Oc2ccc3nc(NC(=O)Nc4cc(C(F)(F)F)ccc4Cl)sc3c2)ccn1", "values": [
      {"measurement": "inhibition of growth at 100 µM", "setting": "[1]", "value": 89.1, "unit": "%"},
      {"measurement": "inhibition of growth at 100 µM", "setting": "[2]", "value": 90, "unit": "%"},
      {"measurement": "inhibition of growth at 10 µM", "setting": "[3]", "value": 28.3, "unit": "%"},
      {"measurement": "inhibition of growth at 10 µM", "setting": "[4]", "value": 16.3, "unit": "%"}
    ]},
    {"smiles": "CNC(=O)c1cc(Oc2ccc3nc(NC(=O)Nc4ccc(N5CCN(C)CC5)cc4)sc3c2)ccn1", "values": [
      {"measurement": "inhibition of growth at 100 µM", "setting": "[1]", "value": 86.4, "unit": "%"},
      {"measurement": "inhibition of growth at 100 µM", "setting": "[2]", "value": 95, "unit": "%"},
      {"measurement": "inhibition of growth at 10 µM", "setting": "[3]", "value": 30.5, "unit": "%"},
      {"measurement": "inhibition of growth at 10 µM", "setting": "[4]", "value": 24.6, "unit": "%"}
    ]},
    {"smiles": "CNC(=O)c1cc(Oc2ccc3nc(NC(=O)c4cc(Cl)cc(Cl)c4)sc3c2)ccn1", "values": [
      {"measurement": "inhibition of growth at 100 µM", "setting": "[1]", "value": 84.2, "unit": "%"},
      {"measurement": "inhibition of growth at 100 µM", "setting": "[2]", "value": 15.8, "unit": "%"},
      {"measurement": "inhibition of growth at 10 µM", "setting": "[3]", "value": 9.62, "unit": "%"},
      {"measurement": "inhibition of growth at 10 µM", "setting": "[4]", "value": 13.4, "unit": "%"}
    ]},
    {"smiles": "CNC(=O)c1cc(Oc2ccc3nc(NC(=O)Nc4ccc(Cl)cc4Cl)sc3c2)ccn1", "values": [
      {"measurement": "inhibition of growth at 100 µM", "setting": "[1]", "value": 91.7, "unit": "%"},
      {"measurement": "inhibition of growth at 100 µM", "setting": "[2]", "value": 93.6, "unit": "%"},
      {"measurement": "inhibition of growth at 10 µM", "setting": "[3]", "value": 22.3, "unit": "%"},
      {"measurement": "inhibition of growth at 10 µM", "setting": "[4]", "value": 32.2, "unit": "%"}
    ]},
    {"smiles": "CNC(=O)c1cc(Oc2ccc3nc(NC(=O)Nc4ccc(N5CCOCC5)cc4)sc3c2)ccn1", "values": [
      {"measurement": "inhibition of growth at 100 µM", "setting": "[1]", "value": 77.7, "unit": "%"},
      {"measurement": "inhibition of growth at 100 µM", "setting": "[2]", "value": 73.3, "unit": "%"},
      {"measurement": "inhibition of growth at 10 µM", "setting": "[3]", "value": 14.1, "unit": "%"},
      {"measurement": "inhibition of growth at 10 µM", "setting": "[4]", "value": 1.58, "unit": "%"}
    ]},
    {"smiles": "CNC(=O)c1cc(Oc2ccc3nc(NC(=O)Nc4ccc(Br)cc4)sc3c2)ccn1", "values": [
      {"measurement": "inhibition of growth at 100 µM", "setting": "[1]", "value": 69.2, "unit": "%"},
      {"measurement": "inhibition of growth at 100 µM", "setting": "[2]", "value": 80, "unit": "%"},
      {"measurement": "inhibition of growth at 10 µM", "setting": "[3]", "value": 26.7, "unit": "%"},
      {"measurement": "inhibition of growth at 10 µM", "setting": "[4]", "value": 12.1, "unit": "%"}
    ]},
    {"smiles": "CNC(=O)c1cc(Oc2ccc3nc(NC(=O)Nc4ccc(F)cc4)sc3c2)ccn1", "values": [
      {"measurement": "inhibition of growth at 100 µM", "setting": "[1]", "value": 72.9, "unit": "%"},
      {"measurement": "inhibition of growth at 100 µM", "setting": "[2]", "value": 83.8, "unit": "%"},
      {"measurement": "inhibition of growth at 10 µM", "setting": "[3]", "value": 14.2, "unit": "%"},
      {"measurement": "inhibition of growth at 10 µM", "setting": "[4]", "value": 12.2, "unit": "%"}
    ]},
    {"smiles": "CNC(=O)c1cc(Oc2ccc3nc(NC(=O)c4ccc(Cl)cc4)sc3c2)ccn1", "values": [
      {"measurement": "inhibition of growth at 100 µM", "setting": "[1]", "value": 83, "unit": "%"},
      {"measurement": "inhibition of growth at 100 µM", "setting": "[2]", "value": 80.5, "unit": "%"},
      {"measurement": "inhibition of growth at 10 µM", "setting": "[3]", "value": 18.9, "unit": "%"},
      {"measurement": "inhibition of growth at 10 µM", "setting": "[4]", "value": 27.5, "unit": "%"}
    ]}
  ]
}
